*1 amine or outer side, *2 acyl side, *3 side chain or, on linkers, in order; H or OH if unused. Where a SMILES comes first, the peptide text is derived from it. Bridges are numbered along the chain shown (N, C = ends). [ ]: non-standard residue; d: D form. The star is where a group is joined. ξ: configuration not given here. X1 = O=C(O)CNC(=O)C(CCCCNC(=S)Nc1ccc(-c2c3ccc(=O)cc-3oc3cc(O)ccc23)c(C(=O)O)c1)N*; X2 = O=C(C1CCN[c+]2c(N[*:1])cc3cc(O)c(O)cc3n21)[*:2]; ξOrn(N(OH)CHO) = NC(CCCN(O)C=O)C(=O)O; Glutaryl = O=C(CCCC(=O)[*:2])[*:1]
Columns and labels:
Pseudomonas aeruginosa = assay: FACS analysis of pyoverdine peptide fluorescein binding and competition; conditions: 0.1 μM conjugate; 100-fold excess free pyoverdine
Procedure: The x-axis indicates fluorescence intensity.
(§1) This procedure applies to Examples 25-27. For cell sorting assays, iron limited conditions were maintained by addition of dipyridyl to the culture (final concentration of […]). Cells were grown to mid-log phase (NB or LB broth), the siderophore conjugates added to 10-20 million CFU of bacterial cells to a final siderophore conjugate concentration of 2-3 uM (total volume=11 mL), and incubated for a period of 30 minutes. Competition was performed by adding a 100-fold excess of desferrioxamine (Yersinia) or pyoverdine PaA (Pseudomonas) to the cells 15 minutes prior to incubation with the siderophore conjugates. Fluorescently activated cell sorting (FACS) was performed on a FACS Caliber (BD Bio systems, Franklin Lakes, N.J.) cell sorter with both the forward scatter and side scatter in the log mode per manufactures guidelines for analyzing bacteria. Bacteria samples were diluted with PBS to achieve 200-400 counts per second.
Cell studies using FACS analysis and Pseudomonas aeruginosa were performed essentially as described under Example 25 (see FIG. 10) to assess binding and competition of this molecule (concentrations ranged from 1 μM to 1 nM).

Yersinia enterocolitica = assay: FACS analysis of desferrioxamine fluorescein binding and competition
Procedure: as §1
In this case, fluorescence shift indicates binding of the fluorescein conjugate to the siderophore receptor on the bacterial surface; whereas, adding excess non-labeled ligand (competition) reduces the number of free binding sites prior to conjugate incubation. […] It is interesting to note that this compound was iron unloaded and thus consistent with unloaded siderophore binding reported by Schalk et al., Mol. Microbiol. 39: 351-360 (2001).

[1] = target: T1, cell surface folate receptors (Mus musculus, UniProt P35846); assay: Fluorescence measurement of binding to folate receptor positive M109 cells in culture
T1 construct: cell surface folate receptors on folate receptor positive M109 cells in culture; endogenous in cells; host or cells: M109 cells
Procedure: Texas Red C2-maleimide (Molecular Probes, Eugene, Oreg.) was dissolved in dimethyl sulfoxide (DMSO) (1 mg in 200 μl DMSO). A 1.4 molar equivalent (1 mg) of Folate-Cys was added to the solution and mixed for 4 hours at room temperature. Folate-Cys-Texas Red (Folate-Texas Red) was purified by reverse-phase HPLC on a C18 column at a flow rate of 1 ml/min. The mobile phase, consisting of 10 mM NH4HCO3 buffer, pH 7.0 (eluent A) and acetonitrile (eluent B), was maintained at a 99:1 A:B ratio for the first five minutes and then changed to 70:30 A:B in a linear gradient over the next 30 minutes followed by a 1:99 A:B linear gradient over the last 15 minutes. Folate-Cys-Texas Red eluted as two isomer peaks at 44.5 and 45.8 minutes. The product was confirmed by mass spectroscopy and the biologic activity was confirmed by fluorescence measurement of its binding to cell surface folate receptors on folate receptor positive M109 cells in culture.

T1 sequence (P35846 25-232): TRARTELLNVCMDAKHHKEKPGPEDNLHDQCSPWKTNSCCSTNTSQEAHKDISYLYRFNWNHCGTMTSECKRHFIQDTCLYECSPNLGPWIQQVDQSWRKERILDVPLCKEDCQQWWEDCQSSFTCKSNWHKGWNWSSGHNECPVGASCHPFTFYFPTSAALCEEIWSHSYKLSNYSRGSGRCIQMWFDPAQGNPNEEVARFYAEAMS

Compound: CC(O)C1NC(=O)C(CCCN(O)C=O)NC(=O)C(NC(=O)C(CCCN(O)C=O)NC(=O)C(CO)NC(=O)C(CCCNC(=N)N)NC(=O)C(CO)NC(=O)C2CCN[c+]3c(NC(=O)CCCC(=O)NC(CCC(=O)O)C(=O)NC(CCCCNC(=S)Nc4ccc(-c5c6ccc(=O)cc-6oc6cc(O)ccc56)c(C(=O)O)c4)C(=O)NCC(=O)O)cc4cc(O)c(O)cc4n32)CCCCNC(=O)C(C(C)O)NC1=O (stereo not shown) [Pyoverdine Peptide Fluorescein] ({X1-Glu-Glutaryl}-[X2]SRS[ξOrn(N(OH)CHO)]K[ξOrn(N(OH)CHO)]TT; lactam 6-C; configuration not given here)
- binding and competition (Pseudomonas aeruginosa): competition using free pyoverdine was detected

Compound: CC(=O)N(O)CCCCCNC(=O)CCC(=O)NCCCCCNC(=O)CCC(=O)N(O)CCCCCNC(=S)Nc1ccc(-c2c3ccc(=O)cc-3oc3cc(O)ccc23)c(C(=O)O)c1 [desferrioxamine fluorescein]
- shift in fluorescence intensity with competition (Yersinia enterocolitica; competition with a 100-fold excess of desferrioxamine): 15%
- shift in fluorescence intensity (Yersinia enterocolitica; non-competed, 2 μM conjugate concentration, non-incubated control 1%): ~50%

Compound: Nc1nc2ncc(CNc3ccc(C(=O)NC(CCC(=O)NC(CSC4CC(=O)N(CCNS(=O)(=O)c5ccc(C6=c7cc8c9c(c7Oc7c6cc6c%10c7CCCN%10CCC6)CCC[N+]=9CCC8)c(S(=O)(=O)[O-])c5)C4=O)C(=O)O)C(=O)O)cc3)nc2c(=O)[nH]1 (stereo not shown) [Folate-Cys-Texas Red]
- biologic activity (binding to cell surface folate receptors) [1]: confirmed
